From patent US10617683B2, “Inhibitors of CRL4 ubiquitin ligase and uses thereof” (Cornell University, priority 2012, dated 2020) come the findings set out here.

Where a SMILES comes first, the peptide text is derived from it. The star is where a group is joined. Cbz = O=C(OCc1ccccc1)*

For this experiment, the system named is DDB2 degradation by CUL4A in MEF cells expressing FLAG-tagged DDB2. Briefly: cell-based assay for DDB2 degradation by CUL4A following UV. Also on record: species or system Mouse. To be noted: positive control, FIG. 2 lane 3. The source says:
FIG. 2 is an image which depicts experimental data illustrating the results of a cell-based DDB2 degradation assay. The tested compounds, which are described in detail in FIGS. 7-11, included the following small molecule compounds: PZ-104 (lane 1); PZ-108 (lane 2); PZ-106 (lane 3); PZ-101 (lane 4); PZ-103 (lane 5); PZ-501 (lane 6); PZ-202 (lane 7); PZ-203 (lane 8); PZ-201 (lane 9); PZ-301 (lane 10); PZ-305 (lane 11); PZ-303 (lane 12); PZ-601 (lane 13); PZ-701 (lane 14); PZ-701 (lane 15); PZ-901 (lane 16); PZ-1001 (lane 17); PZ-1101 (lane 18); PZ-1201 (lane 19); PZ-401 (lane IV1); PZ-402 (lane IV2); and PZ-403 (IV3). MG132, a proteasome inhibitor that blocks UV-induced DDB2 degradation, was a positive control. Tubulin levels were determined by Western blotting as a loading control. […]
A cell-based assay for DDB2 degradation by CUL4A following exposure to UV light was used as a second validation assay to evaluate the hit compounds. […] Three hours post UV exposure, cells were lysed in 1×SDS buffer and protein concentrations were measured by the BCA kit. F-DDB2 levels were detected by SDS PAGE and Western blotting, and tubulin levels were used as loading control. […]

Regarding `CC(C)C[C@@H](C=O)NC(=O)[C@H](CC(C)C)NC(=O)[C@H](CC(C)C)NC(=O)OCc1ccccc1` [MG132] (Cbz-Leu-Leu-Leu-aldehyde), the “UV-induced DDB2 degradation” value is recorded as “blocks”.
